Reference: US10485235B2, “Aryloxypyrimidinyl ethers as herbicides” (FMC Corporation, priority 2015, dated 2019)

Tests used:
Type in all cases: in vivo
kochia (Kochia scoparia) [1] = assay: Test A postemergence, kochia
How it was run: (§1)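 For postemergence, one- to two-leaf plants 2–10 cm tall were sprayed; for preemergence, seeded loam–sand soil got a directed spray. Both used compound in a non-phytotoxic, surfactant-containing solvent, with visual injury ratings (0–100) after roughly 10 greenhouse days.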

[2] = test system: galium (catchweed bedstraw, Galium aparine); assay: Test A postemergence, galium
How it was run: as §1

[3] = test system: ducksalad (Heteranthera limosa); assay: Test B flooded paddy test, ducksalad; settings: 250 g ai/ha, Flood; visual rating after 13 to 15 days; scale 0 to 100, 0 is no effect, 100 is complete control
How it was run: (§2)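 Plants grown to 2-leaf stage, pots flooded to 3 cm above soil and compound applied directly to paddy water, depth maintained throughout. After 13-15 days in greenhouse, visual rating against untreated controls on 0-100 scale (0 no effect, 100 complete control).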

[4] = test system: pigweed (Amaranthus retroflexus); assay: Test A preemergence, pigweed; settings: Preemergence, 0 to 100 scale (0 no effect, 100 complete control)
How it was run: as §1

[5] = test system: barnyardgrass (Echinochloa crus-galli); assay: Test A preemergence, barnyardgrass; settings: Preemergence, 0 to 100 scale (0 no effect, 100 complete control)
How it was run: as §1

[6] = test system: barnyardgrass (Echinochloa crus-galli); assay: Test B flooded paddy test, barnyardgrass; settings: 250 g ai/ha, Flood; visual rating after 13 to 15 days; scale 0 to 100, 0 is no effect, 100 is complete control
How it was run: as §2

kochia (Kochia scoparia) [7] = assay: Test A preemergence, kochia; settings: Preemergence, 0 to 100 scale (0 no effect, 100 complete control)
How it was run: as §1

[8] = test system: ryegrass, Italian (Italian ryegrass, Lolium multiflorum); assay: Test A preemergence, Italian ryegrass; settings: Preemergence, 0 to 100 scale (0 no effect, 100 complete control)
How it was run: as §1

[9] = test system: foxtail, giant (giant foxtail, Setaria faberii); assay: Test A postemergence, giant foxtail
How it was run: as §1

[10] = test system: sedge, umbrella (small-flower umbrella sedge, Cyperus difformis); assay: Test B flooded paddy test, umbrella sedge; settings: 250 g ai/ha, Flood; visual rating after 13 to 15 days; scale 0 to 100, 0 is no effect, 100 is complete control
How it was run: as §2

[11] = test system: ragweed (common ragweed, Ambrosia elatior); assay: Test A postemergence, ragweed
How it was run: as §1

[12] = test system: pigweed (Amaranthus retroflexus); assay: Test A postemergence, pigweed
How it was run: as §1

[13] = test system: barnyardgrass (Echinochloa crus-galli); assay: Test A postemergence, barnyardgrass
How it was run: as §1

[14] = test system: ragweed (common ragweed, Ambrosia elatior); assay: Test A preemergence, ragweed; settings: Preemergence, 0 to 100 scale (0 no effect, 100 complete control)
How it was run: as §1

[15] = test system: ryegrass, Italian (Italian ryegrass, Lolium multiflorum); assay: Test A postemergence, Italian ryegrass
How it was run: as §1

corn (Zea mays) = assay: Test A postemergence, corn
How it was run: as §1

[16] = test system: blackgrass (Alopecurus myosuroides); assay: Test A postemergence, blackgrass
How it was run: as §1

[17] = test system: foxtail, giant (giant foxtail, Setaria faberii); assay: Test A preemergence, giant foxtail; settings: Preemergence, 0 to 100 scale (0 no effect, 100 complete control)
How it was run: as §1

rice (Oryza sativa) = assay: Test B flooded paddy test, rice; settings: 250 g ai/ha, Flood; visual rating after 13 to 15 days; scale 0 to 100, 0 is no effect, 100 is complete control
How it was run: as §2

[18] = test system: wheat (Triticum aestivum); assay: Test A postemergence, wheat
How it was run: as §1

[19] = 125 g ai/ha, postemergence, 0 to 100 scale, 0 is no effect, 100 is complete control, approximately 10 days
[20] = 500 g ai/ha, postemergence, 0 to 100 scale, 0 is no effect, 100 is complete control, approximately 10 days
[21] = Postemergence, 31 g ai/ha, 0 to 100 scale (0 no effect, 100 complete control)
[22] = 31 g ai/ha, postemergence, 0 to 100 scale, 0 is no effect, 100 is complete control, approximately 10 days

Structure (SMILES) | Plant response rating, Kochia (kochia (Kochia scoparia) [1]; [19]) | Plant response rating, Galium [2, 19] | Plant response rating, Ducksalad [3] | Plant response rating, Pigweed ([4]; 125 g ai/ha) | Plant response rating, Barnyardgrass ([5]; 125 g ai/ha) | Plant response rating, Barnyardgrass [6] | Plant response rating, Kochia (kochia (Kochia scoparia) [7]; 125 g ai/ha) | Plant response rating, Ryegrass, Italian ([8]; 125 g ai/ha) | Plant response rating, Foxtail, Giant [9, 19] | Plant response rating, Sedge, Umbrella [10] | Plant response rating, Ragweed [11, 19] | Plant response rating, Pigweed [12, 19] | Plant response rating, Barnyardgrass [13, 19] | Plant response rating, Ragweed ([14]; 125 g ai/ha) | Plant response rating, Ryegrass, Italian [15, 19] | Plant response rating, Corn (corn (Zea mays); [19]) | Plant response rating, Blackgrass [16, 19] | Plant response rating, Foxtail, Giant ([17]; 125 g ai/ha) | Plant response rating, Rice (rice (Oryza sativa)) | Plant response rating, Wheat [18, 19] | further results
N#Cc1cccc(Oc2ncc(Cl)cn2)c1OCc1cccc(Cl)c1 [Compound 21] | 40 | 20 | 0 | 10 | 0 | 0 | 0 | 0 | 10 | 0 | 10 | 50 | 10 | 0 | 0 | 10 | 0 | 40 | 0 | 0 | Plant response rating, Kochia (kochia (Kochia scoparia) [1]; [20]): 70; Plant response rating, Galium [2, 20]: 70; Plant response rating, Pigweed ([4]; 500 g ai/ha): 40; Plant response rating, Barnyardgrass ([5]; 500 g ai/ha): 10; Plant response rating, Kochia (kochia (Kochia scoparia) [7]; 500 g ai/ha): 30; Plant response rating, Ryegrass, Italian ([8]; 500 g ai/ha): 10; Plant response rating, Foxtail, Giant [9, 20]: 40; Plant response rating, Ragweed [11, 20]: 20; Plant response rating, Pigweed [12, 20]: 60; Plant response rating, Barnyardgrass [13, 20]: 20; Plant response rating, Ragweed ([14]; 500 g ai/ha): 0; Plant response rating, Ryegrass, Italian [15, 20]: 0; Plant response rating, Corn (corn (Zea mays); [20]): 20; Plant response rating, Blackgrass [16, 20]: 20; Plant response rating, Foxtail, Giant ([17]; 500 g ai/ha): 100; Plant response rating, Wheat [18, 20]: 10
CCC(=O)COc1c(C#N)cccc1Oc1ncc(Cl)cn1 [Compound 75] | 20 | 20 | 30 | 100 | 50 | 0 | 60 | 0 | 0 | 0 | 0 | 20 | 0 | 0 | 0 | 10 | 0 | 40 | 0 | 0 | Plant response rating, Kochia (kochia (Kochia scoparia) [1]; [21]): 10; Plant response rating, Galium [2, 21]: 10; Plant response rating, Pigweed ([4]; 31 g ai/ha): 50; Plant response rating, Barnyardgrass ([5]; 31 g ai/ha): 0; Plant response rating, Kochia (kochia (Kochia scoparia) [7]; 31 g ai/ha): 0; Plant response rating, Ryegrass, Italian ([8]; 31 g ai/ha): 0; Plant response rating, Foxtail, Giant [9, 21]: 0; Plant response rating, Ragweed [11, 21]: 0; Plant response rating, Pigweed [12, 21]: 10; Plant response rating, Barnyardgrass [13, 21]: 0; Plant response rating, Ragweed ([14]; 31 g ai/ha): 0; Plant response rating, Ryegrass, Italian [15, 21]: 0; Plant response rating, Corn (corn (Zea mays); [21]): 0; Plant response rating, Blackgrass [16, 21]: 0; Plant response rating, Foxtail, Giant ([17]; 31 g ai/ha): 0; Plant response rating, Wheat [18, 21]: 0
FCCCOc1c(Cl)cccc1Oc1ncc(Cl)cn1 [Compound 44] | 70 | 20 | 70 | 100 | 20 | 0 | 40 | 0 | 20 | 30 | 0 | 70 | 10 | 0 | 0 | 10 | 10 | 80 | 0 | 0 | Plant response rating, Kochia (kochia (Kochia scoparia) [1]; [22]): 20; Plant response rating, Galium [2, 22]: 10; Plant response rating, Pigweed ([4]; 31 g ai/ha): 10; Plant response rating, Barnyardgrass ([5]; 31 g ai/ha): 10; Plant response rating, Kochia (kochia (Kochia scoparia) [7]; 31 g ai/ha): 0; Plant response rating, Ryegrass, Italian ([8]; 31 g ai/ha): 0; Plant response rating, Foxtail, Giant [9, 22]: 0; Plant response rating, Ragweed [11, 22]: 0; Plant response rating, Pigweed [12, 22]: 30; Plant response rating, Barnyardgrass [13, 22]: 0; Plant response rating, Ragweed ([14]; 31 g ai/ha): 0; Plant response rating, Ryegrass, Italian [15, 22]: 0; Plant response rating, Corn (corn (Zea mays); [22]): 0; Plant response rating, Blackgrass [16, 22]: 0; Plant response rating, Foxtail, Giant ([17]; 31 g ai/ha): 10; Plant response rating, Wheat [18, 22]: 0
FC(F)(F)CCCCOc1c(Br)cccc1Oc1ncc(Cl)cn1 [Compound 33] | 90 | 90 | 30 | 90 | 50 | 0 | 20 | 20 | 60 | 95 | 10 | 100 | 60 | 0 | 20 | 20 | 40 | 100 | 0 | 10 | Plant response rating, Kochia (kochia (Kochia scoparia) [1]; [22]): 50; Plant response rating, Galium [2, 22]: 50; Plant response rating, Pigweed ([4]; 31 g ai/ha): 10; Plant response rating, Barnyardgrass ([5]; 31 g ai/ha): 10; Plant response rating, Kochia (kochia (Kochia scoparia) [7]; 31 g ai/ha): 0; Plant response rating, Ryegrass, Italian ([8]; 31 g ai/ha): 0; Plant response rating, Foxtail, Giant [9, 22]: 20; Plant response rating, Ragweed [11, 22]: 0; Plant response rating, Pigweed [12, 22]: 80; Plant response rating, Barnyardgrass [13, 22]: 10; Plant response rating, Ragweed ([14]; 31 g ai/ha): 0; Plant response rating, Ryegrass, Italian [15, 22]: 0; Plant response rating, Corn (corn (Zea mays); [22]): 10; Plant response rating, Blackgrass [16, 22]: 10; Plant response rating, Foxtail, Giant ([17]; 31 g ai/ha): 60; Plant response rating, Wheat [18, 22]: 0
CCCCCOc1c(C#N)cccc1Oc1ncc(Cl)cn1 [Compound 51] | 70 | 70 | 80 | 50 | 40 | 0 | 40 | 0 | 40 | 95 | 10 | 40 | 30 | 0 | 10 | 20 | 20 | 100 | 0 | 0 | Plant response rating, Kochia (kochia (Kochia scoparia) [1]; [22]): 40; Plant response rating, Galium [2, 22]: 40; Plant response rating, Pigweed ([4]; 31 g ai/ha): 10; Plant response rating, Barnyardgrass ([5]; 31 g ai/ha): 10; Plant response rating, Kochia (kochia (Kochia scoparia) [7]; 31 g ai/ha): 0; Plant response rating, Ryegrass, Italian ([8]; 31 g ai/ha): 0; Plant response rating, Foxtail, Giant [9, 22]: 10; Plant response rating, Ragweed [11, 22]: 0; Plant response rating, Pigweed [12, 22]: 10; Plant response rating, Barnyardgrass [13, 22]: 10; Plant response rating, Ragweed ([14]; 31 g ai/ha): 0; Plant response rating, Ryegrass, Italian [15, 22]: 0; Plant response rating, Corn (corn (Zea mays); [22]): 10; Plant response rating, Blackgrass [16, 22]: 0; Plant response rating, Foxtail, Giant ([17]; 31 g ai/ha): 40; Plant response rating, Wheat [18, 22]: 0
